Assay results published in patent publication US20120108592A1, “PHARMACEUTICAL COMPOSITIONS AND METHODS OF USE OF SALICYLANILIDES FOR TREATMENT OF HEPATITIS VIRUSES” (priority 2010, published 2012).
Values joined by “and” are separate entries in the source; they are usually repeats but may differ in a detail not shown here. Equal entries are not always repeated.

Assays:
[1] = system: HCV replicon cell line, AVA5 (sub-genomic CONI, genotype 1b); assay: Primary HCV replicon cell assay, antiviral activity (intracellular HCV RNA, blot hybridization); format: cell-based; details: Hepatitis C virus, Ava5, 72 h, 3-day assay; for EC50: 2-fold depression of intracellular HCV RNA; for EC90: 10-fold depression of intracellular HCV RNA
Experimental: (§1) Antiviral activity of test compounds was assessed in a 3-day assay using the stably-expressing HCV replicon cell line, AVA5 (sub-genomic CONI, genotype 1b) [Korba, B. E. et al. Antiviral Res. 77, 56-63 (2008); Blight et al., Science 290, 1972-1974 (2000)] maintained as sub-confluent cultures on 96-well plates as previously described [Okuse et al., Antiviral Research 65, 23-34 (2005)]. Antiviral activity was determined by blot hybridization analysis of intracellular HCV RNA (normalized to the level of cellular B-actin RNA in each culture sample) and cytotoxicity was assessed by neutral red dye uptake after 3 days of treatment. Additional studies were performed using Huh7 cells containing another HCV replicon, H/FL-Neo, a genotype la full length construct [Blight et al., J. Virol. 77, 3181-3190 (2003)]. For studies involving human serum, standard culture medium (which contains 10% fetal bovine serum) and assay conditions were maintained.
(§2) EC50, EC90 and CC50 values (±standard deviations [S.D.]) were calculated by linear regression analysis using data combined from all treated cultures (Korba, B. E. et al. Antiviral Res. 77, 56-63 (2008)). […] Selectivity index (S.I.) was calculated as CC50/EC90 for HBV assays and CC50/EC50 for HCV assays.

[2] = Primary HCV replicon cell assay, cytotoxicity (neutral red dye uptake); format: cell-based; details: human, AVA5 HCV replicon cells (sub-genomic CON1, genotype 1b), 3 days of treatment
Experimental: (§3) Antiviral activity of test compounds was assessed in a 3-day assay using the stably-expressing HCV replicon cell line, AVA5 (sub-genomic CONI, genotype 1b) [Korba, B. E. et al. Antiviral Res. 77, 56-63 (2008); Blight et al., Science 290, 1972-1974 (2000)] maintained as sub-confluent cultures on 96-well plates as previously described [Okuse et al., Antiviral Research 65, 23-34 (2005)]. Antiviral activity was determined by blot hybridization analysis of intracellular HCV RNA (normalized to the level of cellular B-actin RNA in each culture sample) and cytotoxicity was assessed by neutral red dye uptake after 3 days of treatment. Additional studies were performed using Huh7 cells containing another HCV replicon, H/FL-Neo, a genotype la full length construct [Blight et al., J. Virol. […] For studies involving human serum, standard culture medium (which contains 10% fetal bovine serum) and assay conditions were maintained.

[3] = system: HCV replicon cell line, AVA5 (sub-genomic CONI, genotype 1b); assay: Secondary HCV replicon cell assay genotype 1b, antiviral activity; format: cell-based; details: Hepatitis C virus; for EC50: 2-fold depression of intracellular HCV RNA; for EC90: 10-fold depression of intracellular HCV RNA
Experimental: as §1, §2

[4] = Secondary HCV replicon cell assay genotype 1b, cytotoxicity (neutral red dye uptake); format: cell-based; details: human, AVA5 HCV replicon cells (sub-genomic CON1)
Experimental: as §3

[5] = system: HCV replicon H/FL-Neo, genotype 1a full length construct, in Huh7 cells; assay: Secondary HCV replicon cell assay genotype 1a, antiviral activity; format: cell-based; details: Hepatitis C virus; for EC50: Huh-7, 2-fold depression of intracellular HCV RNA; for EC90: Huh-7, 10-fold depression of intracellular HCV RNA
Experimental: as §1, §2

[6] = Secondary HCV replicon cell assay genotype 1a, cytotoxicity (neutral red dye uptake); format: cell-based; details: human
Experimental: as §3

[7] = system: HBV virion in 2.2.15 cells; assay: HBV antiviral assay in 2.2.15 cells, virion (VIR) HBV DNA; format: cell-based; details: Hepatitis B virus, HBV virion DNA, 2.2.15 cells, nine daily doses; for EC50: read-out: EC50 (VIR); for EC90: read-out: EC90 (VIR)
Experimental: (§4) HBV antiviral assays were conducted as previously described [Korba, B. E. et al. Antiviral Res. 77, 56-63 (2008);].

[8] = Cytotoxicity in 2.2.15 cells (neutral red dye uptake); format: cell-based; details: human, nine daily doses
Experimental: Briefly, confluent cultures of 2.2.15 cells were maintained on 96-well flat-bottomed tissue culture plates (confluence in this culture system is required for active, high levels of HBV replication equivalent to that observed in chronically-infected individuals. Cultures were treated with nine consecutive daily doses of the test compounds. HBV DNA levels were assessed by quantitative blot hybridization 24 hr. after the last treatment. Cytotoxicity was assessed by uptake of neutral red dye 24 hr. following the last treatment.

[9] = system: HBV replication intermediates in 2.2.15 cells; assay: HBV antiviral assay in 2.2.15 cells, replication intermediates (RI) HBV DNA; format: cell-based; details: Hepatitis B virus, HBV replication intermediates, 2.2.15 cells, nine daily doses; for EC50: read-out: EC50 (RI); for EC90: read-out: EC90 (RI)
Experimental: as §4

For `Cc1cccc(C(=O)Nc2ccc(F)cc2)c1O`, the melting point was 144.8 to 145.8 °C.

`O=C(O)c1ccccc1C(=O)Nc1ccc(F)cc1` showed a melting point of 167.3 °C.

For `O=C(Nc1cccc(Br)c1)c1ccccc1O`, the melting point was 183.5 °C.

For `Cc1cccc(C(=O)Nc2cccc([N+](=O)[O-])c2)c1O`, the melting point was 217.5 °C.

Compound `Cc1cccc(C(=O)Nc2ccccc2Cl)c1O` has a melting point of 99.8 to 100.4 °C.

`Cc1cccc(C(=O)Nc2cccc(Br)c2)c1O` showed a melting point of 147.2 to 148.2 °C.

Work on `Cc1cccc(C(=O)Nc2ccccc2F)c1O` yielded a melting point of 74.2 to 83.4 °C.

Work on `CC(=O)Oc1ccccc1C(=O)Nc1ccccc1S(C)(=O)=O` yielded a melting point of 115 to 117 °C.

`CS(=O)(=O)c1ccccc1NC(=O)c1ccccc1O` gave a melting point of 142 to 145 °C.

For `CC(=O)Oc1ccccc1C(=O)Nc1cccc(S(C)(=O)=O)c1`, the melting point was 51 to 53 °C.

`CS(=O)(=O)c1cccc(NC(=O)c2ccccc2O)c1` gave a melting point of 210 to 212 °C.

With `CC(=O)Oc1ccccc1C(=O)Nc1ccc(S(C)(=O)=O)cc1` the melting point was 184 to 186 °C.

For `CS(=O)(=O)c1ccc(NC(=O)c2ccccc2O)cc1`, the melting point was 193 °C and 193 to 196 °C.

With `O=C(Nc1cc(C(F)(F)F)cc(C(F)(F)F)c1)c1ccccc1O` the melting point was 196 to 198 °C.

`O=C(Nc1ccc([N+](=O)[O-])cc1)c1ccccc1O` showed a melting point of 233 °C.

`O=C(Nc1ccccc1Br)c1ccccc1O` [Compound 4, N-(2-bromophenyl)-2-hydroxybenzamide] gave an EC50 [1] of 5.8 µM, an EC90 [1] of 20 µM and a CC50 at 3 days [2] greater than 100 µM. The melting point was 165.5 °C.

Work on `O=C(Nc1ccc([N+](=O)[O-])cc1Cl)c1cc(Cl)ccc1O` [Compound 6, 5-chloro-N-(2-chloro-4-nitrophenyl)-2-hydroxybenzamide] yielded an EC50 [1] of 0.31 µM, an EC90 [1] of 1.2 µM and a CC50 at 3 days [2] of 11 µM. For the same compound, the EC50 [3] was 0.1 µM, the EC90 [3] was 0.61 µM and the CC50 at 3 days [4] was 0.64 µM. The EC50 [5] was 0.11 µM, the EC90 [5] was 0.82 µM and the CC50 at 3 days [6] was 0.79 µM.

For `O=C(Nc1cccc([N+](=O)[O-])c1)c1ccccc1O` [Compound 7, 2-hydroxy-N-(3-nitrophenyl)benzamide], the EC50 [1] was 1.1 µM, the EC90 [1] was 6.1 µM and the CC50 at 3 days [2] was 34 µM. For the same compound, the melting point was 222 °C.

`Cc1cccc(C(=O)Nc2cccc(F)c2)c1O` [Compound 9, N-(3-fluorophenyl)-2-hydroxy-3-methylbenzamide] showed an EC50 [1] of 1.9 µM, an EC90 [1] of 9 µM and a CC50 at 3 days [2] of 40 µM. For the same compound, the melting point was 143.8 to 144.8 °C.

In the case of `Cc1cccc(C(=O)Nc2cccc(Cl)c2)c1O` [Compound 14, N-(3-chlorophenyl)-2-hydroxy-3-methylbenzamide], the EC50 [1] is reported as 2.8 µM, the EC90 [1] is reported as 7.8 µM and the CC50 at 3 days [2] is reported as 35 µM. For the same compound, the melting point was 148.5 °C.

For `O=C(O)c1ccccc1C(=O)Nc1ccccc1Cl` [Compound 15, 2-(2-chlorophenylcarbamoyl)benzoic acid], the EC50 [1] was 2.9 µM, the EC90 [1] was 11 µM and the CC50 at 3 days [2] was 78 µM. The melting point was 145.2 to 145.7 °C.

`Cc1cccc(C(=O)Nc2ccc(Cl)cc2)c1O` [Compound 20, N-(4-chlorophenyl)-2-hydroxy-3-methylbenzamide] gave an EC50 [1] of 6.5 µM, an EC90 [1] of 16 µM and a CC50 at 3 days [2] greater than 100 µM. The melting point was 159.6 to 161.6 °C.

With `O=C(Nc1ccccc1Cl)c1ccccc1O` [Compound 23, N-(2-chlorophenyl)-2-hydroxybenzamide] the EC50 [1] was 3.8 µM, the EC90 [1] was 21 µM and the CC50 at 3 days [2] was 72 µM. It also gave a melting point of 168.1 to 168.8 °C.

In the case of `CC(=O)Oc1ccccc1C(=O)Nc1cccc(F)c1` [Compound 24, 2-(3-fluorophenylcarbamoyl)phenyl acetate], the EC50 [1] is reported as 2.1 µM, the EC90 [1] is reported as 6.8 µM and the CC50 at 3 days [2] is reported as greater than 100 µM. The melting point was 88.5 to 89.7 °C.

With `CC(=O)Oc1ccc(Cl)cc1C(=O)Nc1ccc([N+](=O)[O-])cc1Cl` [Compound 25, 4-chloro-2-(2-chloro-4-nitrophenylcarbamoyl)phenyl acetate] the EC50 [1] was 0.13 µM, the EC90 [1] was 0.82 µM and the CC50 at 3 days [2] was 5.8 µM. The EC50 [3] was 0.078 µM, the EC90 [3] was 0.31 µM and the CC50 at 3 days [4] was 3.4 µM. The EC50 [5] was 0.1 µM, the EC90 [5] was 0.46 µM and the CC50 at 3 days [6] was 4.3 µM.

With `O=C(Nc1cccc(C(F)(F)F)c1)c1ccccc1O` [Compound 27, 2-hydroxy-N-(3-(trifluoromethyl)phenyl)benzamide] the EC50 [1] was 3.6 µM, the EC90 [1] was 11 µM and the CC50 at 3 days [2] was greater than 100 µM. For the same compound, the melting point was 188 to 190.6 °C.

Work on `CC(=O)Oc1ccccc1C(=O)Nc1cc(C(F)(F)F)cc(C(F)(F)F)c1` [Compound 34, 2-(3,5-bis(trifluoromethyl)phenylcarbamoyl)phenyl acetate] yielded an EC50 [1] of 0.44 µM, an EC90 [1] of 1.7 µM and a CC50 at 3 days [2] of 4.3 µM. For the same compound, the EC50 [3] was 0.91 µM, the EC90 [3] was 3.7 µM and the CC50 at 3 days [4] was 9.5 µM. It also gave an EC50 [5] of 0.79 µM, an EC90 [5] of 4.7 µM and a CC50 at 3 days [6] of 7.8 µM. The melting point was 118 to 125 °C.

`CC(=O)Oc1ccccc1C(=O)Nc1ccc(Cl)cc1` [Compound 38, 2-(4-chlorophenylcarbamoyl)phenyl acetate] showed an EC50 [7] of 3.5 µM, an EC90 [7] of 9.7 µM and a CC50 at 9 days [8] greater than 100 µM.

With `CC(=O)Oc1ccccc1C(=O)Nc1ccc(Br)cc1` [Compound 39, 2-(4-bromophenylcarbamoyl)phenyl acetate] the EC50 [7] was 0.76 µM, the EC90 [7] was 3 µM and the EC50 [9] was 2.1 µM. It also gave an EC90 [9] of 6.8 µM and a CC50 at 9 days [8] greater than 100 µM.

`CC(=O)Oc1ccccc1C(=O)Nc1ccc(I)cc1` [Compound 40, 2-(4-iodophenylcarbamoyl)phenyl acetate] showed an EC50 [7] of 0.2 µM, an EC90 [7] of 1.2 µM and an EC50 [9] of 0.73 µM. The EC90 [9] was 3.3 µM and the CC50 at 9 days [8] was greater than 100 µM.

For `Cc1cc([N+](=O)[O-])c(Cl)cc1NC(=O)c1ccccc1O` [Compound 42, N-(5-chloro-2-methyl-4-nitrophenyl)-2-hydroxybenzamide], the EC50 [7] was 0.23 µM, the EC90 [7] was 0.71 µM and the EC50 [9] was 0.68 µM. It also gave an EC90 [9] of 2.1 µM and a CC50 at 9 days [8] greater than 100 µM.

With `O=C(Nc1ccc(OC(F)(F)C(F)F)cc1)c1ccccc1O` [Compound 49, 2-hydroxy-N-(4-(1,1,2,2-tetrafluoroethoxy)phenyl)benzamide] the EC50 [1] was 0.313 µM, the EC90 [1] was 1.1 µM and the CC50 at 3 days [2] was 3.9 µM.

For `O=C(Nc1ccc(C(F)(F)F)cc1)c1ccccc1O` [Compound 51, 2-hydroxy-N-(4-(trifluoromethyl)phenyl)benzamide], the EC50 [7] was 5.6 µM, the EC90 [7] was 21 µM and the CC50 at 9 days [8] was greater than 100 µM.

`CC(=O)Oc1ccccc1C(=O)Nc1cc(C(F)(F)F)ccc1Cl` [Compound 52, 2-(2-chloro-5-(trifluoromethyl)phenylcarbamoyl)phenyl acetate] showed an EC50 [7] of 2.5 µM, an EC90 [7] of 9.1 µM and a CC50 at 9 days [8] of 59 µM.

With `CC(=O)Oc1ccccc1C(=O)Nc1ccc(Cl)c([N+](=O)[O-])c1` [Compound 53, 2-(4-chloro-3-nitrophenylcarbamoyl)phenyl acetate] the EC50 [7] was 2 µM, the EC90 [7] was 8.7 µM and the CC50 at 9 days [8] was 52 µM.

In the case of `CC(=O)Oc1ccccc1C(=O)Nc1cc([N+](=O)[O-])ccc1Cl` [Compound 54, 2-(2-chloro-5-nitrophenylcarbamoyl)phenyl acetate], the EC50 [7] is reported as 2.1 µM, the EC90 [7] is reported as 8.5 µM and the CC50 at 9 days [8] is reported as 65 µM.

`CC(=O)Oc1ccccc1C(=O)Nc1ccc(F)c(F)c1` [Compound 55, 2-(3,4-difluorophenylcarbamoyl)phenyl acetate] gave an EC50 [7] of 2.2 µM, an EC90 [7] of 8.8 µM and a CC50 at 9 days [8] of 48 µM.
